Experimental data published in patent US20050267195A1, “Drug composition for blood sugar control” (priority 2002, published 2005).
Where a name gives a salt, the structure may show the parent alone.

Legend:
[1] = test system: type II diabetic patients; assay: Clinical study in type II diabetic patients; assay type: in vivo, human
Description: Using the pharmaceutical composition described in Example 1, a clinical study was conducted in type II diabetic patients under the following conditions.
Test drug and Mode of administration: Every patient orally administered either of a combination selected from the following combination groups (one tablet from each) three times a day just before meals (within 5 minutes before starting meal): • The present invention group: (1)+(4) • Positive control group: (2)+(3) • Positive control group: (3)+(4) • (1) a tablet comprising 10 mg of mitiglinide calcium salt hydrate; • (2) a tablet comprising 0.2 mg of voglibose (chemical name: (+)-1L-[1(OH),2,4,5/3]-5-[2-hydroxy-1-(hydroxymethyl)ethyl]amino-1-C-(hydroxymethyl)-1,2,3,4-cyclohexaneterol); • (3) a placebo tablet of mitiglinide calcium salt hydrate not containing any active ingredient; and • (4) a placebo tablet of voglibose not containing any active ingredient. • Treatment period: 12 weeks • Observation item: The following items were measured before administration, at a certain fixed time after the start of administration and at the completion of administration, and their changes were calculated, or the frequency of adverse drug reactions was calculated, and then evaluated.

healthy male adults = assay: Clinical study on administration timing; assay type: in vivo, human
Description: Administration timing before taking a meal was evaluated in healthy male adults. Used test drugs were a tablet comprising 10 mg of mitiglinide calcium salt hydrate and a placebo tablet. The tablet comprising 10 mg of mitiglinide calcium salt hydrate was administered at 0.5 min, 5 min, 10 min or 30 min before starting meal (Positive group), while the placebo tablet was administered at 0.5 min before starting meal. After administration, blood glucose levels were measured at starting meal and evaluated.

[2] = in comparison with voglibose and placebo

SMILES: O=C(O)[C@H](CC(=O)N1C[C@H]2CCCC[C@H]2C1)Cc1ccccc1 [mitiglinide calcium salt hydrate, (+)-monocalcium bis[(2S,3a,7a-cis)-α-benzylhexahydro-γ-oxo-2-isoindolinebutyrate] dihydrate]
- effect on HbA1C value (in words) ([1]; after 4 weeks after the start of administration, in comparison with voglibose and placebo): significantly lowered HbA1C value
- frequencies of hypoglycemic symptoms and gastrointestinal disorders (in words) ([1]; human, in vivo): decreased the frequencies of hypoglycemic symptoms and gastrointestinal disorders
- effect on 1 hour and 2 hour values of postprandial plasma glucose (PPG) (in words) [1, 2]: significantly lowered 1 hour and 2 hour values of postprandial plasma glucose (PPG)
- effect on early morning fasting plasma glucose (FPG) (in words) [1, 2]: significantly lowered early morning fasting plasma glucose (FPG)
- blood glucose level at starting meal (in words) (healthy male adults; administered at 30 minutes before starting meal): notably declined
- blood glucose level at starting meal (in words) (healthy male adults; administrated within 10 minutes before starting meal): able to maintain good blood glucose level

SMILES: OCC(CO)N[C@H]1C[C@](O)(CO)[C@@H](O)[C@H](O)[C@H]1O [voglibose, (+)-1L-[1(OH),2,4,5/3]-5-[2-hydroxy-1-(hydroxymethyl)ethyl]amino-1-C-(hydroxymethyl)-1,2,3,4-cyclohexaneterol, reference compound]
- Change in 2 hour value of PPG, mean value ([1]; final evaluation, three times a day just before meals, 12 weeks): -5.1 mg/dL
- effect on HbA1C value (in words) ([1]; in comparison with placebo): significantly lowered HbA1C value
